Measured values: ChEMBL document CHEMBL1148161, “Jaspisamides A-C, new cytotoxic macrolides from the Okinawan sponge Jaspis sp” (J Nat Prod, 1993)
In brackets after ≈: the same amount, converted by molar mass.

Legend:
KB = experiment: Cytotoxicity against human KB cells; type: functional, cell-based
L1210 = experiment: Cytotoxicity against mouse L1210 cells; type: functional, cell-based

| SMILES | IC50 (KB) | IC50 (L1210) |
| --- | --- | --- |
| COC(CC1OC(=O)CC(O)C/C=C/C(=O)C(C)C(OC)c2coc(n2)-c2coc(n2)-c2coc(n2)/C=C/CC(O)C1C)C(C)CCC(=O)C(C)C(C/C=C/N(C)C=O)OC (stereo unspecified) [JASPISAMIDE B] | 6 ng/mL (≈ 7.03 nM) | < 1 ng/mL |
| COC(CC1OC(=O)CC(O)CC(O)CC(=O)C(C)C(OC)c2coc(n2)-c2coc(n2)-c2coc(n2)/C=C/CCC1C)C(C)CCC(=O)C(C)C(C/C=C/N(C)C=O)OC (stereo unspecified) [JASPISAMIDE A] | 15 ng/mL (≈ 17.5 nM) | < 1 ng/mL |
| COC(CC1OC(=O)CC(O)C/C=C/C(=O)C(C)C(OC)c2coc(n2)-c2coc(n2)-c2coc(n2)/C=C/CCC1C)C(C)CCC(=O)C(C)C(OC)C(C)/C=C/N(C)C=O (stereo unspecified) [JASPISAMIDE C] | 13 ng/mL (≈ 15.3 nM) | < 1 ng/mL |
